Assay results taken from ChEMBL document CHEMBL4602709 (ACS Med Chem Lett, 2020).

What was measured:
[1] = Metabolic stability in human liver microsomes assessed as half life at 3 uM measured up to 30 mins in presence of NADPH by […] analysis; format: ADME, Microsome
[2] = Metabolic stability in mouse liver microsomes assessed as half life at 3 uM measured up to 30 mins in presence of NADPH by […] analysis; format: ADME, Microsome
[3] = biological target: T1, Discoidin domain-containing receptor 2 (Homo sapiens) (UniProt Q16832); experiment: Inhibition of DDR2 (unknown origin) assessed as residual activity at 10 uM incubated for 5 mins in presence of [gamma-33ATP] by scintillation counting based radiometry assay relative to control
T1 sequence (whole entry): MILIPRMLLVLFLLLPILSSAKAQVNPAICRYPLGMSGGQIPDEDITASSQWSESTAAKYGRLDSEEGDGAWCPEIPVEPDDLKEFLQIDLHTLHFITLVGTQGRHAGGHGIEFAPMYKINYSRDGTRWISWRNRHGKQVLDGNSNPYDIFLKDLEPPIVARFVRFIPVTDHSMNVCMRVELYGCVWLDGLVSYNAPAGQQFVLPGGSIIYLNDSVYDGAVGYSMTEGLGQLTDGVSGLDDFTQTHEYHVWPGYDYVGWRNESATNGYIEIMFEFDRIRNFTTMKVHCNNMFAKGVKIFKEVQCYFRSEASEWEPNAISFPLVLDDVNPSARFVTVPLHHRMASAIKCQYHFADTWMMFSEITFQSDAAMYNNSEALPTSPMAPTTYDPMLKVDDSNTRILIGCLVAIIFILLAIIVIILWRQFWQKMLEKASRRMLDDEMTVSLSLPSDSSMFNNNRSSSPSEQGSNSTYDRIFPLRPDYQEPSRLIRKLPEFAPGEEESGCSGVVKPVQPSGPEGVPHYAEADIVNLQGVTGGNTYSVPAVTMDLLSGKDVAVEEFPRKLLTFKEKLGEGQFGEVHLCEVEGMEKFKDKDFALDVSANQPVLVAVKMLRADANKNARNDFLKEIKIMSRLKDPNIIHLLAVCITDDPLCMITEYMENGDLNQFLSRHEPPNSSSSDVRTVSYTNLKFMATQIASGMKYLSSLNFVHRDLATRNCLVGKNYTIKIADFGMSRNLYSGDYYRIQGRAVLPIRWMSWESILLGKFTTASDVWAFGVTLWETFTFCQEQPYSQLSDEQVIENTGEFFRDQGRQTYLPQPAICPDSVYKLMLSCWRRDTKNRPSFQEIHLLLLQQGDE

[4] = biological target: Proto-oncogene tyrosine-protein kinase Src (Homo sapiens, UniProt P12931); experiment: Inhibition of SRC (unknown origin) assessed as residual activity at 10 uM incubated for 5 mins in presence of [gamma-33ATP] by scintillation counting based radiometry assay relative to control
Proto-oncogene tyrosine-protein kinase Src, sequence (P12931 2-536 limits assumed): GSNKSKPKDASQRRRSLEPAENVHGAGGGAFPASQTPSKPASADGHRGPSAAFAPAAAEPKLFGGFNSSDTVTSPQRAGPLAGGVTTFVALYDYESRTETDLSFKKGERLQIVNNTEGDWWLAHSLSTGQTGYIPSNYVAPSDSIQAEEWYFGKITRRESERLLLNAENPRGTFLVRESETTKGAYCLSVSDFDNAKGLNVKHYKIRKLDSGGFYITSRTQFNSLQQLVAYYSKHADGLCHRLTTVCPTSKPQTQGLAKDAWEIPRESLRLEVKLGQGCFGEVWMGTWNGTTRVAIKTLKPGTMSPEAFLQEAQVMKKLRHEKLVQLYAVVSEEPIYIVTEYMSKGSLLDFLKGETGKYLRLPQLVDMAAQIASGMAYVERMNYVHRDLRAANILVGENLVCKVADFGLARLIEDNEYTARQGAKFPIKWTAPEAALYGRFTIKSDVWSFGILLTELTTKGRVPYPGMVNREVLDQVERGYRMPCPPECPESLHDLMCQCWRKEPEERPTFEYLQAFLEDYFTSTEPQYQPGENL

[5] = biological target: T2, Ephrin type-B receptor 3 (Homo sapiens) (UniProt P54753); experiment: Inhibition of EPHB3 (unknown origin) assessed as residual activity at 10 uM incubated for 5 mins in presence of [gamma-33ATP] by scintillation counting based radiometry assay relative to control
T2 sequence (whole entry): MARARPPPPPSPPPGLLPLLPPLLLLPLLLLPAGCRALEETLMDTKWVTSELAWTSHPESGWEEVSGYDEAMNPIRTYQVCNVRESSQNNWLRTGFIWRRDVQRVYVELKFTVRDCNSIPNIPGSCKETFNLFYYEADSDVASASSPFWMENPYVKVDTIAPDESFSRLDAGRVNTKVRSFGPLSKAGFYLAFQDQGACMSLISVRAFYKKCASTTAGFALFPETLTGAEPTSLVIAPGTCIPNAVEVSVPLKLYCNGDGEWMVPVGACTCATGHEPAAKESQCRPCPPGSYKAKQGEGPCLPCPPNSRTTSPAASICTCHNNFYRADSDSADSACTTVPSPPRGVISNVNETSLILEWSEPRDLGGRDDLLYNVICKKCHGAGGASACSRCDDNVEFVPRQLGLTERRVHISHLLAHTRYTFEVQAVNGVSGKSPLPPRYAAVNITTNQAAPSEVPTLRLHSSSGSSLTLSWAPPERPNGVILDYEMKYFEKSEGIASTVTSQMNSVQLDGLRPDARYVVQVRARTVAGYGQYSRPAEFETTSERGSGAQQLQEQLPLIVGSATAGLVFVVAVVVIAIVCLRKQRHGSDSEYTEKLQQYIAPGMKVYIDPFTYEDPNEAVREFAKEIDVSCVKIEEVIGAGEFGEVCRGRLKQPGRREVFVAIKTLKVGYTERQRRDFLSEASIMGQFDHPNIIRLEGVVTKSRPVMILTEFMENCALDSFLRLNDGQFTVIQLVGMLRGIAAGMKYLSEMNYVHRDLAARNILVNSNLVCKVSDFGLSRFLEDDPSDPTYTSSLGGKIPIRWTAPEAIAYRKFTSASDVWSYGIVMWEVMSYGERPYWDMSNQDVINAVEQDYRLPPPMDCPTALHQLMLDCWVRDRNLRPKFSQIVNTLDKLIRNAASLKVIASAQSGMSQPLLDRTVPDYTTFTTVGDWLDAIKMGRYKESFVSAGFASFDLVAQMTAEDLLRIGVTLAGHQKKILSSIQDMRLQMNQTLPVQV

[6] = biological target: Tyrosine-protein kinase Lck (Homo sapiens, UniProt P06239); experiment: Inhibition of LCK (unknown origin) assessed as residual activity at 10 uM incubated for 5 mins in presence of [gamma-33ATP] by scintillation counting based radiometry assay relative to control
Tyrosine-protein kinase Lck, sequence (P06239 2-509 limits assumed): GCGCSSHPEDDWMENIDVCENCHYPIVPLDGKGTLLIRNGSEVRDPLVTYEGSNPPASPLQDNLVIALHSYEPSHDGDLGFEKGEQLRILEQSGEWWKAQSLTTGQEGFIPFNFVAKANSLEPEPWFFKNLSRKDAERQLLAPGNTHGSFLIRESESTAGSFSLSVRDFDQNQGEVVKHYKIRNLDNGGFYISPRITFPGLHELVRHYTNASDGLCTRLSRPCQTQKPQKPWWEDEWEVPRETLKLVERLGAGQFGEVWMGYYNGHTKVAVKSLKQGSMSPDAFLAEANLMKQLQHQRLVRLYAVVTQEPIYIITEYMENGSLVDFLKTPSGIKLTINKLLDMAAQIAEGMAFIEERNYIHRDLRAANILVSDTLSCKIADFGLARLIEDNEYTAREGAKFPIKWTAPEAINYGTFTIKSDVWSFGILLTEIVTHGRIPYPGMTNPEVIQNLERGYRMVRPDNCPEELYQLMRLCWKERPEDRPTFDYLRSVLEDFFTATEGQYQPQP

[7] = species on record: Homo sapiens; experiment: Inhibition of VEGFR (unknown origin) assessed as residual activity at 10 uM incubated for 5 mins in presence of [gamma-33ATP] by scintillation counting based radiometry assay relative to control

SMILES	half-life at 3 µM [1] [min]	half-life at 3 µM [2] [min]	Activity [3] [%]	Activity [4] [%]	Activity [5] [%]	Activity [6] [%]	Activity [7] [%]
Cc1cn(-c2cc(NC(=O)c3ccc(C)c(Nc4nccc(-c5cccnc5)n4)c3)cc(C(F)(F)F)c2)cn1 [NILOTINIB]	7.89	7.89	4	74	52	37	75
Cc1ccc(C(=O)Nc2ccc(CN3Cc4cn[nH]c4C3)c(Cl)c2)cc1C#Cc1cnc2cccnn12	39.8	16.8	14	15	5	17	13
